Source: patent US9914732B2, “Diazabicyclo[4.3.1]decane derivatives for treatment of psychiatric disorders” (Max-Planck-Gesellschaft zur Forderung der Wissenschaften …, priority 2014, dated 2018)
pKi: −log10 of the molar value.

Columns and labels:
FKBP51 = target: T1, FKBP51 (Homo sapiens, UniProt Q13451); assay: Fluorescence polarization (FP) assay, binding to the FK506-binding domain of FKBP51; conditions: FK506-binding domain of FKBP51 (FKBP51FK1), competition with fluorescent ligand 2b
T1 sequence (Q13451 42-130 limits assumed): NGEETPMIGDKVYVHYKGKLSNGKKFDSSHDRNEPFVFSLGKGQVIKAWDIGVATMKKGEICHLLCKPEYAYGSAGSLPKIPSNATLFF
Method in brief: (§1)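 Competitive FP with fluorescent ligand 2b at 20 nM (2× concentration) and FK1 domain at 280 nM (FKBP51) or 400 nM (FKBP52) in 20 mM HEPES pH 8, 0.01% Triton-X100. Anisotropy read after 30 min at room temperature (ex 485, em 535 nm), in duplicate; IC50 by four-parameter fit, Ki via Wang competitive equation.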

FKBP52 = target: T2, FKBP52 (Homo sapiens, UniProt Q02790); assay: Fluorescence polarization (FP) assay, binding to the FK506-binding domain of FKBP52; conditions: FK506-binding domain of FKBP52 (FKBP52FK1), competition with fluorescent ligand 2b
T2 sequence (Q02790 50-138 limits assumed): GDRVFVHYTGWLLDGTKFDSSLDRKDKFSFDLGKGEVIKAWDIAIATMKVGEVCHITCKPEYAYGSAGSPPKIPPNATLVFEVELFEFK
Method in brief: as §1

Compound	pKi (FKBP51)	pKi (FKBP52)
COCCN1C[C@H](C=O)[C@H]2CCC[C@@H](C1=O)N2S(=O)(=O)c1cc(Cl)cc(Cl)c1 [Compound B9, (1S,5S,6R)-10-((3,5-dichlorophenyl)sulfonyl)-3-(2-methoxyethyl)-2-oxo-3,10-diazabicyclo[4.3.1]decane-5-carbaldehyde]	6.30 to 7.00	6.30 to 7.00
COC[C@H]1CN(Cc2cnn[nH]2)C(=O)[C@@H]2CCC[C@H]1N2S(=O)(=O)c1ccc(-c2ncccn2)cc1 [Compound N27, (1S,5S,6R)-3-((1H-1,2,3-triazol-5-yl)methyl)-5-(methoxymethyl)-10-((4-(pyrimidin-2-yl)phenyl)sulfonyl)-3,10-diazabicyclo[4.3.1]decan-2-one]	≥ 7.00	≥ 7.00
COc1ccc(OCCN2C[C@H](C[C@H](C)O)C3CCCC(C2=O)N3S(=O)(=O)c2cc(Cl)cc(Cl)c2)cc1OC (single isomer, unassigned) [Compound D4]	≥ 7.00	≥ 7.00
C#CCN1C[C@H](COC)[C@H]2CCC[C@@H](C1=O)N2S(=O)(=O)c1ccc(NC(C)=O)c(Cl)c1 [Compound N8, N-(2-chloro-4-(((1S,5S,6R)-5-(methoxymethyl)-2-oxo-3-(prop-2-yn-1-yl)-3,10-diazabicyclo[4.3.1]decan-10-yl)sulfonyl)phenyl)acetamide]	6.30 to 7.00	6.30 to 7.00
C#CCN1C[C@H](COC)[C@H]2CCC[C@@H](C1=O)N2S(=O)(=O)c1cccnc1 [Compound N13, (1S,5S,6R)-5-(methoxymethyl)-3-(prop-2-yn-1-yl)-10-(pyridin-3-ylsulfonyl)-3, 10-diazabicyclo[4.3.1]decan-2-one]	6.00 to 6.30	6.00 to 6.30
C=CC1CN(Cc2ccccn2)C(=O)C2CCCC1N2S(=O)(=O)c1cccc(Cl)c1 (stereo in doubt) [Compound K11, (1S,5R,6R)-10-((3-chlorophenyl)sulfonyl)-3-(pyridin-2-ylmethyl)-5-vinyl-3,10-diazabicyclo[4.3.1]decan-2-one]	6.30 to 7.00	6.30 to 7.00
COCC1CN(Cc2ccccn2)C(=O)C2CCCC1N2S(=O)(=O)c1cc(Cl)cc(Cl)c1 (stereo in doubt) [Compound M5, (1S,5R,6R)-10-((3,5-dichlorophenyl)sulfonyl)-5-(methoxymethyl)-3-(pyridin-2-ylmethyl)-3,10-diazabicyclo[4.3.1]decan-2-one]	≥ 7.00	≥ 7.00
C=C[C@@H]1CN(Cc2ccco2)C(=O)[C@@H]2CCC[C@H]1N2S(=O)(=O)c1cc(Cl)cc(Cl)c1 [Compound J17, (1S,5R,6R)-10-((3,5-dichlorophenyl)sulfonyl)-3-(furan-2-ylmethyl)-5-vinyl-3,10-diazabicyclo[4.3.1]decan-2-one]	5.30 to 6.00	5.30 to 6.00
COC[C@H]1CN(Cc2cnn[nH]2)C(=O)[C@@H]2CCC[C@H]1N2S(=O)(=O)c1ccc(NC(C)=O)c(Br)c1 [Compound N22, N-(4-(((1S,5S,6R)-3-((1H-1,2,3-triazol-5-yl)methyl)-5-(methoxymethyl)-2-oxo-3,10-diazabicyclo[4.3.1]decan-10-yl)sulfonyl)-2-bromophenyl)acetamide]	≥ 7.00	≥ 7.00
C=CC1CN(Cc2ccccn2)C(=O)C2CCCC1N2S(=O)(=O)c1ccc2nc(C)sc2c1 (stereo in doubt) [Compound K6, (1S,5R,6R)-10-((2-methylbenzo[d]thiazol-6-yl)sulfonyl)-3-(pyridin-2-ylmethyl)-5-vinyl-3,10-diazabicyclo[4.3.1]decan-2-one]	≥ 7.00	≥ 7.00
COCCN1CC(COC)C2CCCC(C1=O)N2S(=O)(=O)c1cc(Cl)cc(Cl)c1 (stereo in doubt) [Compound B14, (1S,5R,6R)-10-((3,5-dichlorophenyl)sulfonyl)-3-(2-methoxyethyl)-5-(methoxymethyl)-3,10-diazabicyclo[4.3.1]decan-2-one]	≥ 7.00	6.30 to 7.00
